Measured values: ChEMBL document CHEMBL1148078, “Isolation of Spongosine and 2'-Deoxyspongosine from a Western Australian Sponge of the Order Hadromerida (Tethyidae)” (J Nat Prod, 1994)
The source made the active and inactive calls.

What was measured:
Assay type in all cases: functional, organism-based
Staphylococcus aureus = experiment: Antimicrobial activity against Staphylococcus aureus at 200 ug/disk by disk diffusion assay
[1] = tested on: Saccharomyces pastorianus; experiment: Antimicrobial activity against Saccharomyces carlsbergensis at 200 ug/disk by disk diffusion assay
Candida albicans = experiment: Antimicrobial activity against Candida albicans at 200 ug/disk by disk diffusion assay
Escherichia coli = experiment: Antimicrobial activity against Escherichia coli at 200 ug/disk by disk diffusion assay
Pseudomonas aeruginosa = experiment: Antimicrobial activity against Pseudomonas aeruginosa at 200 ug/disk by disk diffusion assay

Measured: Activity

COc1nc(N)c2ncn([C@H]3C[C@H](O)[C@@H](CO)O3)c2n1
inactive: all assays above

COc1nc(N)c2ncn([C@@H]3O[C@H](CO)[C@@H](O)[C@H]3O)c2n1
inactive: all assays above
